Measured values taken from PubChem BioAssay (NCI).
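Cells were grown in 96-well plates and exposed to each compound for 48 hours at five concentrations; endpoints were interpolated linearly between bracketing concentrations, or set to the highest concentration if not reached. At the GI50, growth is halved. TGI: concentration producing complete growth inhibition.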

How the values were obtained:
Test in all cases: growth of human tumour cells (NCI), 48 h
SNB-75 CNS = system: SNB-75 CNS
SNB-19 CNS = system: SNB-19 CNS
T-47D breast = system: T-47D breast
SK-MEL-28 melanoma = system: SK-MEL-28 melanoma
OVCAR-3 ovarian = system: OVCAR-3 ovarian
HL-60(TB) leukemia = system: HL-60(TB) leukemia
SK-MEL-2 melanoma = system: SK-MEL-2 melanoma
U251 CNS = system: U251 CNS
NCI-H23 lung = system: NCI-H23 lung
SR leukemia = system: SR leukemia

## CN(CSc1ccc(Cl)cc1)c1ccc(CSc2ccc(Cl)cc2)cc1
SNB-75 CNS
  GI50: 2.93 µM
  TGI: 16.1 µM
SNB-19 CNS
  GI50: 9.14 µM
  TGI: 23.2 µM
T-47D breast
  GI50: 4.22 µM
  TGI: 72 µM
SK-MEL-28 melanoma
  GI50: 5.55 µM
  TGI: 19.6 µM
OVCAR-3 ovarian
  GI50: 1.97 µM
  TGI: 5.17 µM
HL-60(TB) leukemia
  GI50: 1.57 µM
  TGI: 32 µM
SK-MEL-2 melanoma
  GI50: 14.2 µM
  TGI: 36.2 µM
U251 CNS
  GI50: 6.87 µM
  TGI: 23.5 µM
NCI-H23 lung
  GI50: 4.24 µM
  TGI: 19.5 µM
SR leukemia
  GI50: 1.77 µM
  TGI: 7.58 µM

## CC(C)OCc1cc(CN2CCN(c3cccc(Cl)c3)CC2)c(O)c2ncccc12
SNB-75 CNS
  GI50: 1.19 µM
  TGI: 14.4 µM
SNB-19 CNS
  GI50: 0.504 µM
  TGI: 21.7 µM
T-47D breast
  GI50: 0.556 µM
  TGI: 18.4 µM
SK-MEL-28 melanoma
  GI50: 0.997 µM
  TGI: 14.5 µM
OVCAR-3 ovarian
  GI50: 0.451 µM
  TGI: 14.8 µM
HL-60(TB) leukemia
  GI50: 0.388 µM
  TGI: 2.84 µM
SK-MEL-2 melanoma
  GI50: 1.74 µM
  TGI: 7.07 µM
U251 CNS
  GI50: 0.423 µM
  TGI: 11.9 µM
NCI-H23 lung
  GI50: 1.03 µM
  TGI: 19 µM
SR leukemia
  GI50: 0.403 µM
  TGI: 10.2 µM

## N#C/C(=C\c1ccc(F)cc1)n1nc2cccc(F)c2n1
SNB-75 CNS
  GI50: 2.37 µM
  TGI: 8.09 µM
SNB-19 CNS
  GI50: 6.67 µM
  TGI: > 100 µM
T-47D breast
  GI50: 4.2 µM
  TGI: > 100 µM
SK-MEL-28 melanoma
  GI50: 5.8 µM
  TGI: > 100 µM
OVCAR-3 ovarian
  GI50: 2.75 µM
  TGI: > 100 µM
HL-60(TB) leukemia
  GI50: 2.69 µM
  TGI: 7.68 µM
SK-MEL-2 melanoma
  GI50: 5.26 µM
  TGI: > 100 µM
U251 CNS
  GI50: 3.52 µM
  TGI: > 100 µM
NCI-H23 lung
  GI50: 3.9 µM
  TGI: > 100 µM
SR leukemia
  GI50: 2.31 µM
  TGI: > 100 µM

## COc1cc2c(cc1OCCCCn1c(-c3cccs3)nc3ccccc31)N=C[C@@H]1CCCN1C2=O
SNB-75 CNS
  GI50: 1.22 µM
  TGI: 2.54 µM
SNB-19 CNS
  GI50: 1.53 µM
  TGI: 4.39 µM
T-47D breast
  GI50: 0.503 µM
  TGI: 3.65 µM
SK-MEL-28 melanoma
  GI50: 1.53 µM
  TGI: 3.27 µM
OVCAR-3 ovarian
  GI50: 1.72 µM
  TGI: 4.29 µM
HL-60(TB) leukemia
  GI50: 5.18 µM
  TGI: 53.4 µM
SK-MEL-2 melanoma
  GI50: 1.47 µM
  TGI: 4.68 µM
U251 CNS
  GI50: 1.77 µM
  TGI: 10.1 µM
NCI-H23 lung
  GI50: 2.05 µM
  TGI: 4.4 µM
SR leukemia
  GI50: 0.45 µM
  TGI: > 100 µM

## O=C1c2cccnc2C(=O)c2c1c(C(=O)OCCc1ccccn1)c1ccccn21
SNB-75 CNS
  GI50: < 0.0153 µM
  TGI: 1.71 µM
SNB-19 CNS
  GI50: 0.0308 µM
  TGI: 1.59 µM
T-47D breast
  GI50: 1.71 µM
  TGI: 8.39 µM
SK-MEL-28 melanoma
  GI50: 0.0749 µM
  TGI: 1.55 µM
OVCAR-3 ovarian
  GI50: 0.0305 µM
  TGI: 1.45 µM
HL-60(TB) leukemia
  GI50: 0.783 µM
  TGI: 5.93 µM
SK-MEL-2 melanoma
  GI50: 0.351 µM
  TGI: 3.47 µM
U251 CNS
  GI50: 0.0216 µM
  TGI: 0.261 µM
NCI-H23 lung
  GI50: 0.0218 µM
  TGI: 1.06 µM
SR leukemia
  GI50: < 0.01 µM
  TGI: > 100 µM

## CCCCN(CC)CCCCCCCCCCN1CCCc2cc(OC)ccc21
SNB-75 CNS
  GI50: 3.02 µM
  TGI: 11 µM
SNB-19 CNS
  GI50: 4.01 µM
  TGI: 18.8 µM
T-47D breast
  GI50: 2.11 µM
  TGI: 5.83 µM
SK-MEL-28 melanoma
  GI50: 2.92 µM
  TGI: 7.33 µM
OVCAR-3 ovarian
  GI50: 3.35 µM
  TGI: 11.3 µM
HL-60(TB) leukemia
  GI50: 2.07 µM
  TGI: 5 µM
SK-MEL-2 melanoma
  GI50: 1.95 µM
  TGI: 4.15 µM
U251 CNS
  GI50: 2.93 µM
  TGI: 7.56 µM
NCI-H23 lung
  GI50: 2.16 µM
  TGI: 6.09 µM
SR leukemia
  GI50: 1.94 µM
  TGI: 5.56 µM

## O=c1[nH]c2ccccc2n2cc3ccccc3c12
SNB-75 CNS
  GI50: 13.4 µM
  TGI: 74.4 µM
SNB-19 CNS
  GI50: 8.93 µM
  TGI: > 100 µM
T-47D breast
  GI50: 7.45 µM
  TGI: > 100 µM
SK-MEL-28 melanoma
  GI50: 22.6 µM
  TGI: > 100 µM
OVCAR-3 ovarian
  GI50: 18.6 µM
  TGI: 36.7 µM
SK-MEL-2 melanoma
  GI50: 20.6 µM
  TGI: 38.8 µM
U251 CNS
  GI50: 3.25 µM
  TGI: 13.4 µM
NCI-H23 lung
  GI50: 11.1 µM
  TGI: 36.6 µM
SR leukemia
  GI50: 2.87 µM
  TGI: 7.7 µM

## O=c1[nH]c(F)nc2c1ncn2C1OC(CO)C(O)C1O (stereo not drawn)
SNB-75 CNS
  GI50: > 100 µM
  TGI: > 100 µM
SNB-19 CNS
  GI50: > 100 µM
  TGI: > 100 µM
T-47D breast
  GI50: > 100 µM
  TGI: > 100 µM
SK-MEL-28 melanoma
  GI50: > 100 µM
  TGI: > 100 µM
OVCAR-3 ovarian
  GI50: > 100 µM
  TGI: > 100 µM
HL-60(TB) leukemia
  GI50: > 100 µM
  TGI: > 100 µM
U251 CNS
  GI50: > 100 µM
  TGI: > 100 µM
NCI-H23 lung
  GI50: > 100 µM
  TGI: > 100 µM
SR leukemia
  GI50: > 100 µM
  TGI: > 100 µM

## CCN(CC)CC(O)COc1c(Br)c(Br)c(Br)c2c1OC(C)(C)C2 (stereo not drawn)
SNB-75 CNS
  GI50: 5.31 µM
  TGI: 19.4 µM
SNB-19 CNS
  GI50: 9.22 µM
  TGI: 33.9 µM
T-47D breast
  GI50: 10.6 µM
  TGI: 41 µM
SK-MEL-28 melanoma
  GI50: 1.62 µM
  TGI: 3.24 µM
OVCAR-3 ovarian
  GI50: 3.47 µM
  TGI: 16.3 µM
HL-60(TB) leukemia
  GI50: 1.73 µM
  TGI: 3.53 µM
SK-MEL-2 melanoma
  GI50: 3.55 µM
  TGI: 15.4 µM
U251 CNS
  GI50: 4.48 µM
  TGI: 14.8 µM
NCI-H23 lung
  GI50: 9.04 µM
  TGI: 28.9 µM
SR leukemia
  GI50: 1.75 µM
  TGI: 3.81 µM

## Cc1cc(=O)oc2cc(OC(=O)Nc3ccccc3)ccc12
SNB-75 CNS
  TGI: > 100 µM
SNB-19 CNS
  TGI: > 100 µM
T-47D breast
  TGI: > 100 µM
SK-MEL-28 melanoma
  TGI: > 100 µM
OVCAR-3 ovarian
  TGI: > 100 µM
HL-60(TB) leukemia
  TGI: 44.9 µM
SK-MEL-2 melanoma
  TGI: > 100 µM
U251 CNS
  TGI: > 100 µM
NCI-H23 lung
  TGI: > 100 µM
SR leukemia
  TGI: 83.5 µM

## CC1(C)OC2C(CO)OC(n3ccc(N)nc3=O)C2O1 (stereo not drawn)
SNB-19 CNS
  TGI: > 100 µM
T-47D breast
  TGI: > 100 µM
SK-MEL-28 melanoma
  TGI: > 100 µM
OVCAR-3 ovarian
  TGI: > 100 µM
HL-60(TB) leukemia
  TGI: > 100 µM
SK-MEL-2 melanoma
  TGI: > 100 µM
U251 CNS
  TGI: > 100 µM
NCI-H23 lung
  TGI: > 100 µM
SR leukemia
  TGI: > 100 µM

## Cn1c(NCC(CN2CCCC2)OC(=O)c2ccccc2)cc(=O)n(C)c1=O (stereo not drawn)
SNB-75 CNS
  GI50: > 100 µM
  TGI: > 100 µM
SNB-19 CNS
  GI50: > 100 µM
  TGI: > 100 µM
T-47D breast
  GI50: > 100 µM
  TGI: > 100 µM
SK-MEL-28 melanoma
  GI50: > 100 µM
  TGI: > 100 µM
OVCAR-3 ovarian
  GI50: > 100 µM
  TGI: > 100 µM
SK-MEL-2 melanoma
  GI50: > 100 µM
  TGI: > 100 µM
U251 CNS
  GI50: > 100 µM
  TGI: > 100 µM
NCI-H23 lung
  GI50: > 100 µM
  TGI: > 100 µM
SR leukemia
  GI50: > 100 µM
  TGI: > 100 µM

## O=C1C=CC(=O)N1c1ccc(I)cc1
SNB-75 CNS
  TGI: 44.1 µM
SNB-19 CNS
  TGI: > 61.5 µM
T-47D breast
  TGI: 72.3 µM
SK-MEL-28 melanoma
  TGI: 35.3 µM
OVCAR-3 ovarian
  TGI: 52.7 µM
HL-60(TB) leukemia
  TGI: 9.73 µM
SK-MEL-2 melanoma
  TGI: 40.7 µM
U251 CNS
  TGI: > 54.9 µM
NCI-H23 lung
  TGI: 51.2 µM
SR leukemia
  TGI: 45.5 µM

## FC(F)(F)c1cc(-c2ncn(/C=C\c3nnco3)n2)cc(C(F)(F)F)c1
SNB-75 CNS
  GI50: 0.106 µM
  TGI: 3.65 µM
SNB-19 CNS
  GI50: 0.126 µM
  TGI: > 100 µM
T-47D breast
  GI50: 0.0567 µM
  TGI: > 41.5 µM
SK-MEL-28 melanoma
  GI50: 0.125 µM
  TGI: 49.3 µM
OVCAR-3 ovarian
  GI50: 0.06 µM
  TGI: 1.42 µM
HL-60(TB) leukemia
  GI50: 0.0485 µM
  TGI: 13.4 µM
SK-MEL-2 melanoma
  GI50: 0.031 µM
  TGI: 0.251 µM
U251 CNS
  GI50: 0.0402 µM
  TGI: 15.6 µM
NCI-H23 lung
  GI50: 0.146 µM
  TGI: > 41.4 µM
SR leukemia
  GI50: 0.0246 µM
  TGI: 12.6 µM
